*1 amine or outer side, *2 acyl side, *3 side chain or, on linkers, in order; H or OH if unused. Where a SMILES comes first, the peptide text is derived from it. Bridges are numbered along the chain shown (N, C = ends). [ ]: non-standard residue; d: D form. ξ: configuration not given here. Trp(1-CH2COOH) = N[C@@H](Cc1cn(CC(=O)O)c2ccccc12)C(=O)O; Phe(3,4,5-F3) = N[C@@H](Cc1cc(F)c(F)c(F)c1)C(=O)O; Phe(3,4-F2) = N[C@@H](Cc1ccc(F)c(F)c1)C(=O)O; NMePhe(4-F) = CN[C@@H](Cc1ccc(F)cc1)C(=O)O; Phe(4-F) = N[C@@H](Cc1ccc(F)cc1)C(=O)O; d(cisHyp) = O=C(O)[C@H]1C[C@@H](O)CN1; NMeY = CN[C@@H](Cc1ccc(O)cc1)C(=O)O; Hyp = O=C(O)[C@@H]1C[C@@H](O)CN1; NMeF = CN[C@@H](Cc1ccccc1)C(=O)O; X1 = O=C([C@H]1COCCN1[*:1])[*:2]; dHyp = O=C(O)[C@H]1C[C@H](O)CN1; NMeNle = CCCC[C@H](NC)C(=O)O; NMeS = CN[C@@H](CO)C(=O)O; Pip = O=C(O)[C@@H]1CCCCN1; dPip = O=C(O)[C@H]1CCCCN1; hSer = N[C@@H](CCO)C(=O)O; NMeA = CN[C@@H](C)C(=O)O; Orn = NCCC[C@H](N)C(=O)O; Dab = NCC[C@H](N)C(=O)O; Dap = NC[C@H](N)C(=O)O; ξC = NC(CS)C(=O)O; Sar = CNCC(=O)O
The compounds below were run against T1, Human PD-L1/PD-1 (Homo sapiens, UniProt Q9NZQ7) (assay: HTRF Human PD-L1/PD-1 binding assay (PD-1-Ig/PD-L1-His)). Conditions: PD-L1-His 10 nM, PD-1-Ig 20 nM; class symbol; read-out: HTRF Human PD-L1/PD-1 Binding Assay IC50 Range.
T1 construct: TVMV protease cleavage site (C); made in house; host or cells: HEK293T cells
T1 sequence (Q9NZQ7 with tags, fused parts or gaps): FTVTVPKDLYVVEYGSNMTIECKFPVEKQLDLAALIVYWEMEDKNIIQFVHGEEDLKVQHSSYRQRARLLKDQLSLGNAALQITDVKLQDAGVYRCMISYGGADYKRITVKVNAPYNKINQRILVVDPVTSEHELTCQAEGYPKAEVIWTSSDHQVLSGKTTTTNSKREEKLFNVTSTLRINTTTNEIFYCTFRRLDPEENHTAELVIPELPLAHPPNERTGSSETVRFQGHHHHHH
Summary of the method: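 Inhibitors were preincubated 15 min with human PD-L1(18-239)-His (10 nM final), then PD-1(25-167)-Ig (20 nM final) was added for 15 min in dPBS/0.1% BSA/0.05% Tween-20. Eu-cryptate anti-Ig (1 nM) and APC anti-His (20 nM) were added; 665/620 nm ratio read after 30 min.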

SMILES | IC50 [nM]
CCCC[C@H]1C(=O)N2C[C@H](O)C[C@@H]2C(=O)N[C@@H](CC(=O)O)C(=O)N[C@@H](C(C)C)C(=O)N(C)[C@@H](Cc2ccccc2)C(=O)N[C@@H](CC(=O)O)C(=O)N2C[C@H](O)C[C@@H]2C(=O)N[C@@H](Cc2c[nH]c3ccccc23)C(=O)N[C@@H](Cc2ccc(O)cc2)C(=O)N[C@@H](CC(C)C)C(=O)N[C@H](C(=O)NCC(N)=O)CSCC(=O)N[C@@H](Cc2ccc(F)c(F)c2)C(=O)N(C)[C@@H](Cc2ccccc2)C(=O)N1C [Example 9289] ({CH2CO}-[Phe(3,4-F2)][NMeF][NMeNle][d(cisHyp)]DV[NMeF]D[d(cisHyp)]WYLCG-NH2; thioether N-13) | 1 to 9.9
CCCC[C@H]1C(=O)N(C)[C@@H](CCCC)C(=O)N[C@@H](CCC(=O)O)C(=O)N[C@H](C(=O)NCC(N)=O)CSCC(=O)N[C@@H](Cc2ccc(O)cc2)C(=O)N(C)[C@@H](C)C(=O)N[C@@H](CC(=O)O)C(=O)N2CCC[C@H]2C(=O)N[C@@H](CN)C(=O)N[C@@H](CCC(N)=O)C(=O)N2C[C@H](O)C[C@H]2C(=O)N[C@@H](Cc2c[nH]c3ccccc23)C(=O)N[C@@H](CCC(=O)O)C(=O)N[C@@H](Cc2c[nH]c3ccccc23)C(=O)N1C [Example 5245] ({CH2CO}-Y[NMeA]DP[Dap]Q[Hyp]WEW[NMeNle][NMeNle]ECG-NH2; thioether N-14) | 1 to 9.9
CCCC[C@H]1C(=O)N(C)[C@@H](CCCC)C(=O)N[C@@H](CCC(=O)O)C(=O)N[C@H](C(=O)NCC(N)=O)CSCC(=O)N[C@@H](Cc2ccc(O)cc2)C(=O)N(C)[C@@H](C)C(=O)N[C@@H](CC(=O)O)C(=O)N2CCC[C@H]2C(=O)N[C@@H](CO)C(=O)N[C@@H](CCC(N)=O)C(=O)N2C[C@H](O)C[C@H]2C(=O)N[C@@H](Cc2c[nH]c3ccccc23)C(=O)N[C@@H](CCN)C(=O)N[C@@H](Cc2c[nH]c3ccccc23)C(=O)N1C [Example 5221] ({CH2CO}-Y[NMeA]DPSQ[Hyp]W[Dab]W[NMeNle][NMeNle]ECG-NH2; thioether N-14) | 1 to 9.9
CCCC[C@H]1C(=O)N(C)[C@@H](CCCC)C(=O)N[C@@H](CCCN)C(=O)N[C@H](C(=O)NCC(N)=O)CSCC(=O)N[C@@H](Cc2ccc(O)cc2)C(=O)N2CCCC[C@H]2C(=O)N[C@@H](CC(=O)O)C(=O)N2CCC[C@H]2C(=O)N[C@@H](Cc2c[nH]cn2)C(=O)N[C@@H](CCC(=O)O)C(=O)N2C[C@H](O)C[C@H]2C(=O)N[C@@H](Cc2c[nH]c3ccccc23)C(=O)N[C@@H](CO)C(=O)N[C@@H](Cc2c[nH]c3ccccc23)C(=O)N1C [Example 1536] ({CH2CO}-Y[Pip]DPHE[Hyp]WSW[NMeNle][NMeNle][Orn]CG-NH2; thioether N-14) | 10 to 99.9
CCCC[C@H]1C(=O)N[C@@H](CCC(N)=O)C(=O)N2CCCC[C@@H]2C(=O)N[C@@H](Cc2c[nH]c3ccccc23)C(=O)N[C@@H](Cc2ccc(O)cc2)C(=O)N[C@@H](CCCN)C(=O)N[C@H](C(=O)NCC(N)=O)CSCC(=O)N[C@@H](Cc2ccc(F)cc2)C(=O)N(C)[C@@H](Cc2ccccc2)C(=O)N(C)[C@@H](CCCC)C(=O)N2CCC[C@@H]2C(=O)N[C@@H](CC(=O)O)C(=O)N[C@@H](C(C)C)C(=O)N1C [Example 9218] ({CH2CO}-[Phe(4-F)][NMeF][NMeNle][dP]DV[NMeNle]Q[dPip]WY[Orn]CG-NH2; thioether N-13) | 10 to 99.9
CCCC[C@H]1C(=O)N(C)[C@@H](CO)C(=O)N[C@@H](CCC(=O)O)C(=O)N[C@H](C(=O)NCC(N)=O)CSCC(=O)N[C@@H](Cc2ccc(O)cc2)C(=O)N2CCCC[C@H]2C(=O)N[C@@H](CC(=O)O)C(=O)N2CCC[C@H]2C(=O)N[C@@H](CN)C(=O)N[C@@H](CCC(=O)O)C(=O)N2C[C@H](O)C[C@H]2C(=O)N[C@@H](Cc2c[nH]c3ccccc23)C(=O)N[C@@H](CO)C(=O)N[C@@H](Cc2c[nH]c3ccccc23)C(=O)N1C [Example 1309] ({CH2CO}-Y[Pip]DP[Dap]E[Hyp]WSW[NMeNle][NMeS]ECG-NH2; thioether N-14) | 10 to 99.9
CCCC[C@H]1C(=O)N(C)[C@@H](CCCC)C(=O)N[C@@H](CCN)C(=O)N[C@H](C(=O)NCC(N)=O)CSCC(=O)N[C@@H](Cc2ccc(O)cc2)C(=O)N(C)[C@@H](C)C(=O)N[C@@H](CC(N)=O)C(=O)N2CCC[C@H]2C(=O)N[C@@H](Cc2cnc[nH]2)C(=O)N[C@@H](CCC(N)=O)C(=O)N2C[C@H](O)C[C@H]2C(=O)N[C@@H](Cc2c[nH]c3ccccc23)C(=O)N[C@@H](CCN)C(=O)N[C@@H](Cc2cn(CC(=O)O)c3ccccc23)C(=O)N1C [Example 6293] ({CH2CO}-Y[NMeA]NPHQ[Hyp]W[Dab][Trp(1-CH2COOH)][NMeNle][NMeNle][Dab]CG-NH2; thioether N-14) | 1 to 9.9
CCCC[C@H]1C(=O)N(C)CC(=O)N[C@@H](CC(=O)O)C(=O)N[C@@H](C(C)C)C(=O)N(C)[C@@H](Cc2ccccc2)C(=O)N[C@@H](Cc2c[nH]c3ccccc23)C(=O)N(C)CC(=O)N[C@@H](Cc2c[nH]c3ccccc23)C(=O)N[C@@H](Cc2ccc(O)cc2)C(=O)N[C@@H](CC(C)C)C(=O)N[C@H](C(=O)NCC(N)=O)CSCC(=O)N[C@@H](Cc2ccccc2)C(=O)N(C)[C@@H](Cc2ccccc2)C(=O)N1C [Example 3231] ({CH2CO}-F[NMeF][NMeNle][Sar]DV[NMeF]W[Sar]WYLCG-NH2; thioether N-13) | 1 to 9.9

The next lines start with the values.

IC50 [nM] | SMILES
10 to 99.9 | CCCC[C@H]1C(=O)N2C[C@H](O)C[C@@H]2C(=O)N[C@@H](CC(=O)O)C(=O)N[C@@H](C(C)C)C(=O)N(C)[C@@H](Cc2ccccc2)C(=O)N[C@@H](CCC(=O)O)C(=O)N2C[C@H](O)C[C@@H]2C(=O)N[C@@H](Cc2c[nH]c3ccccc23)C(=O)N[C@@H](Cc2ccc(O)cc2)C(=O)N[C@@H](CCC(N)=O)C(=O)N[C@H](C(=O)NCC(N)=O)CSCC(=O)N[C@@H](Cc2cc(F)c(F)c(F)c2)C(=O)N(C)[C@@H](Cc2ccccc2)C(=O)N1C [Example 9337] ({CH2CO}-[Phe(3,4,5-F3)][NMeF][NMeNle][d(cisHyp)]DV[NMeF]E[d(cisHyp)]WYQCG-NH2; thioether N-13)
1 to 9.9 | CCCC[C@H]1C(=O)N2CCC[C@@H]2C(=O)N[C@@H](CC(=O)O)C(=O)N[C@@H](C(C)C)C(=O)N(C)[C@@H](Cc2ccccc2)C(=O)N[C@@H](CCCN)C(=O)N2CCC[C@@H]2C(=O)N[C@@H](Cc2c[nH]c3ccccc23)C(=O)N[C@@H](Cc2ccc(O)cc2)C(=O)N[C@@H](CC(C)C)C(=O)N[C@H](C(=O)NCC(N)=O)CSCC(=O)N[C@@H](Cc2ccc(F)cc2)C(=O)N(C)[C@@H](Cc2ccccc2)C(=O)N1C [Example 10102] ({CH2CO}-[Phe(4-F)][NMeF][NMeNle][dP]DV[NMeF][Orn][dP]WYLCG-NH2; thioether N-13)
1000 to 10000 | CCCC[C@H]1C(=O)N[C@@H](CC(N)=O)C(=O)N2CCC[C@H]2C(=O)N[C@@H](CO)C(=O)N[C@@H](CCO)C(=O)N2CCC[C@H]2C(=O)N[C@@H](Cc2c[nH]c3ccccc23)C(=O)N[C@@H](CCO)C(=O)N[C@@H](Cc2c[nH]c3ccccc23)C(=O)N(C)[C@@H](C)C(=O)N(C)[C@@H](C)C(=O)N[C@@H](CCC(=O)O)C(=O)NC(C(=O)NCC(N)=O)CSCC(=O)N[C@@H](Cc2ccc(O)cc2)C(=O)N1C (stereo partly drawn) [Example 10215] ({CH2CO}-Y[NMeNle]NPS[hSer]PW[hSer]W[NMeA][NMeA]E[ξC]G-NH2; thioether N-14)
1 to 9.9 | CCCC[C@H]1C(=O)N2CCC[C@@H]2C(=O)N[C@@H](CC(=O)O)C(=O)N[C@@H](C(C)C)C(=O)N(C)[C@@H](Cc2ccccc2)C(=O)N[C@@H](CCC(=O)O)C(=O)N2CCOC[C@@H]2C(=O)N[C@@H](Cc2c[nH]c3ccccc23)C(=O)N[C@@H](Cc2ccc(O)cc2)C(=O)N[C@@H](CCC(N)=O)C(=O)N[C@H](C(=O)NCC(N)=O)CSCC(=O)N[C@@H](Cc2cc(F)c(F)c(F)c2)C(=O)N(C)[C@@H](Cc2ccc(F)cc2)C(=O)N1C [Example 10607] ({CH2CO}-[Phe(3,4,5-F3)][NMePhe(4-F)][NMeNle][dP]DV[NMeF]E[X1]WYQCG-NH2; thioether N-13)
1 to 9.9 | CC(C)C[C@@H]1NC(=O)[C@H](Cc2ccc(O)cc2)NC(=O)[C@H](Cc2c[nH]c3ccccc23)NC(=O)[C@H]2CCCCN2C(=O)[C@H](CCC(=O)O)NC(=O)[C@H](Cc2ccccc2)N(C)C(=O)[C@H](C(C)C)NC(=O)[C@H](CC(=O)O)NC(=O)[C@H]2CCCN2C(=O)[C@H](Cc2ccc(O)cc2)N(C)C(=O)[C@H](Cc2ccc(F)cc2)N(C)C(=O)[C@H](Cc2cc(F)c(F)c(F)c2)NC(=O)CSC[C@@H](C(=O)NCC(N)=O)NC1=O [Example 10611] ({CH2CO}-[Phe(3,4,5-F3)][NMePhe(4-F)][NMeY][dP]DV[NMeF]E[dPip]WYLCG-NH2; thioether N-13)
1 to 9.9 | CCCC[C@H]1C(=O)N2C[C@H](O)C[C@@H]2C(=O)N[C@@H](CC(=O)O)C(=O)N[C@@H](C(C)C)C(=O)N(C)[C@@H](Cc2ccccc2)C(=O)N[C@@H](Cc2ccc(O)cc2)C(=O)N2C[C@@H](O)C[C@@H]2C(=O)N[C@@H](Cc2c[nH]c3ccccc23)C(=O)N[C@@H](Cc2ccc(O)cc2)C(=O)N[C@@H](CCCN)C(=O)N[C@H](C(=O)NCC(N)=O)CSCC(=O)N[C@@H](Cc2cc(F)c(F)c(F)c2)C(=O)N(C)[C@@H](Cc2ccccc2)C(=O)N1C [Example 9372] ({CH2CO}-[Phe(3,4,5-F3)][NMeF][NMeNle][d(cisHyp)]DV[NMeF]Y[dHyp]WY[Orn]CG-NH2; thioether N-13)

Same assay, conditions: PD-L1-His 10 nM, PD-1-Ig 20 nM; read-out: HTRF Human PD-L1/PD-1 Binding Assay IC50

IC50 [nM] | SMILES
10 | CC(C)C[C@@H]1NC(=O)[C@H](Cc2ccc(O)cc2)NC(=O)[C@H](Cc2c[nH]c3ccccc23)NC(=O)[C@H]2CCCCN2C(=O)[C@H](Cc2ccc(O)cc2)NC(=O)[C@H](Cc2ccccc2)N(C)C(=O)[C@H](C(C)C)NC(=O)[C@H](CC(=O)O)NC(=O)[C@H]2CCCN2C(=O)[C@H](C)N(C)C(=O)[C@H](Cc2ccc(F)cc2)N(C)C(=O)[C@H](Cc2ccccc2)NC(=O)CSC[C@@H](C(=O)NCC(N)=O)NC1=O [Example 10543] ({CH2CO}-F[NMePhe(4-F)][NMeA][dP]DV[NMeF]Y[dPip]WYLCG-NH2; thioether N-13)

Reference: patent US10538555B2, “Macrocyclic inhibitors of the PD-1/PD-L1 and CD80(B7-1)/PD-L1 protein/protein interactions” (BRISTOL-MYERS SQUIBB COMPANY, priority 2014, dated 2020)
